According to ChEMBL document CHEMBL1140373, “Azepanone-based inhibitors of human cathepsin L” (J Med Chem, 2005):
Residues, ends and D or L forms follow the SMILES beside them. *: point of attachment. Cbz = O=C(OCc1ccccc1)*

What follows are compounds tested against T1, Cathepsin K (Homo sapiens, UniProt P43235) (assay: Apparent inhibitory constant against human cathepsin K). Conditions: read-out: Ki app.
T1 sequence (P43235 whole entry): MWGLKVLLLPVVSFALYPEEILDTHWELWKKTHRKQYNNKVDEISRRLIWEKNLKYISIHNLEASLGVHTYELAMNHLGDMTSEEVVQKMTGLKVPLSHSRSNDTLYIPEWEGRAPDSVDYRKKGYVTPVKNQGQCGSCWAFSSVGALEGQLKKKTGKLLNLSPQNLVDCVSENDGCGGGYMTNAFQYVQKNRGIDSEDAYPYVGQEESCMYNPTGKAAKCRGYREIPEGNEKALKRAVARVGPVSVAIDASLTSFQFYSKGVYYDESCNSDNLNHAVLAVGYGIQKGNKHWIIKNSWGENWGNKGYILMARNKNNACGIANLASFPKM

Ki [nM] | Structure (SMILES)
> 10000 | O=C(N[C@@H](Cc1ccc2ccccc2c1)C(=O)N[C@H]1CCCN(S(=O)(=O)c2ccccn2)CC1=O)c1cccc2ccccc12
295 | O=C(N[C@@H](Cc1ccc2ccccc2c1)C(=O)N[C@H]1CCCN(S(=O)(=O)c2ccccn2)CC1=O)c1cc2ccccc2o1
12 | CC(C)C[C@H](NC(=O)c1cccc2ccccc12)C(=O)N[C@H]1CCCN(S(=O)(=O)c2ccccn2)CC1=O
10.5 | O=C(N[C@@H](Cc1ccccc1)C(=O)N[C@H]1CCCN(S(=O)(=O)c2ccccn2)CC1=O)c1cc2ccccc2o1

Second part, the compound before the results:

Structure (SMILES) | Ki [nM]
CC(C)C[C@H](NC(=O)c1cccc2cccnc12)C(=O)N[C@H]1CCCN(S(=O)(=O)c2ccccn2)CC1=O | 52
CC(C)C[C@H](NC(=O)c1ccc2ccccc2n1)C(=O)N[C@H]1CCCN(S(=O)(=O)c2ccccn2)CC1=O | 0.89
O=C[C@H](Cc1ccc(O)cc1)NC(=O)[C@H](Cc1ccccc1)NC(=O)OCc1ccccc1 (Cbz-Phe-Tyr-aldehyde) | 0.74

Each compound was assayed against Cathepsin B (Homo sapiens, UniProt P07858) (assay: Apparent inhibitory constant against human cathepsin B). Conditions: read-out: Ki app.

Ki [nM] | Structure (SMILES)
150 | O=C(N[C@@H](Cc1ccc2ccccc2c1)C(=O)N[C@H]1CCCN(S(=O)(=O)c2ccccn2)CC1=O)c1cccc2ccccc12
24 | O=C(N[C@@H](Cc1ccc2ccccc2c1)C(=O)N[C@H]1CCCN(S(=O)(=O)c2ccccn2)CC1=O)c1cc2ccccc2o1
193 | O=C(N[C@@H](Cc1ccccc1)C(=O)N[C@H]1CCCN(S(=O)(=O)c2ccccn2)CC1=O)c1cc2ccccc2o1

The remaining lines, values behind:

Structure (SMILES) | Ki [nM]
CC(C)C[C@H](NC(=O)c1cccc2cccnc12)C(=O)N[C@H]1CCCN(S(=O)(=O)c2ccccn2)CC1=O | > 1000
CC(C)C[C@H](NC(=O)c1ccc2ccccc2n1)C(=O)N[C@H]1CCCN(S(=O)(=O)c2ccccn2)CC1=O | 740

Each compound was assayed against Procathepsin L (Homo sapiens, UniProt P07711) (assay: Apparent inhibitory constant against human cathepsin L). Conditions: read-out: Ki app.
Sequence of Procathepsin L (P07711 whole entry): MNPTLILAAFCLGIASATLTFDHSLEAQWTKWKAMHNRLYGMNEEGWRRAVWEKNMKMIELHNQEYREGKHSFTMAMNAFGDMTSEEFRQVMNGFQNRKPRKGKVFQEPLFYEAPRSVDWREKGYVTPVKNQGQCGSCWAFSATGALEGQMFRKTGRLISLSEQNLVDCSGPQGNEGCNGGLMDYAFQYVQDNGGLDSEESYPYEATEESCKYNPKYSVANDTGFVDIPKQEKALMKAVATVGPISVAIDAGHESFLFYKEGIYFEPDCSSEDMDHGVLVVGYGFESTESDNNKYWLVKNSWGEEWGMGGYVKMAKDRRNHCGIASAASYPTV

Ki [nM] | Structure (SMILES)
0.43 | O=C(N[C@@H](Cc1ccc2ccccc2c1)C(=O)N[C@H]1CCCN(S(=O)(=O)c2ccccn2)CC1=O)c1cccc2ccccc12
0.57 | O=C(N[C@@H](Cc1ccc2ccccc2c1)C(=O)N[C@H]1CCCN(S(=O)(=O)c2ccccn2)CC1=O)c1cc2ccccc2o1
1.4 | CC(C)C[C@H](NC(=O)c1cccc2ccccc12)C(=O)N[C@H]1CCCN(S(=O)(=O)c2ccccn2)CC1=O
1.7 | O=C(N[C@@H](Cc1ccccc1)C(=O)N[C@H]1CCCN(S(=O)(=O)c2ccccn2)CC1=O)c1cc2ccccc2o1

The remaining lines, values behind:

Structure (SMILES) | Ki [nM]
CC(C)C[C@H](NC(=O)c1cccc2cccnc12)C(=O)N[C@H]1CCCN(S(=O)(=O)c2ccccn2)CC1=O | 8.2
CC(C)C[C@H](NC(=O)c1ccc2ccccc2n1)C(=O)N[C@H]1CCCN(S(=O)(=O)c2ccccn2)CC1=O | 5
O=C[C@H](Cc1ccc(O)cc1)NC(=O)[C@H](Cc1ccccc1)NC(=O)OCc1ccccc1 (Cbz-Phe-Tyr-aldehyde) | 0.47

What follows are compounds tested against Cathepsin S (Homo sapiens, UniProt P25774). Conditions: not given.
Sequence of Cathepsin S (P25774 whole entry): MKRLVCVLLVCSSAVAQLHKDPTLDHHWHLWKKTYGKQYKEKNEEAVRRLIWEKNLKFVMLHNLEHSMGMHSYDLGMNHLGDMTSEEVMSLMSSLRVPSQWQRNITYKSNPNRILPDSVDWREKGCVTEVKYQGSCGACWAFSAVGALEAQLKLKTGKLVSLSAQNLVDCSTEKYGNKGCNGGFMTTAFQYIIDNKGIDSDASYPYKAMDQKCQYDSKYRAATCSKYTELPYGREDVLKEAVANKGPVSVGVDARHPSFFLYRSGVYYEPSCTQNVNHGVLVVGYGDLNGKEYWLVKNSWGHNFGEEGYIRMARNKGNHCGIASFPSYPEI

Ki [nM] | Structure (SMILES)
15.6 | O=C(N[C@@H](Cc1ccc2ccccc2c1)C(=O)N[C@H]1CCCN(S(=O)(=O)c2ccccn2)CC1=O)c1cccc2ccccc12
3.1 | O=C(N[C@@H](Cc1ccc2ccccc2c1)C(=O)N[C@H]1CCCN(S(=O)(=O)c2ccccn2)CC1=O)c1cc2ccccc2o1
5.7 | CC(C)C[C@H](NC(=O)c1cccc2ccccc12)C(=O)N[C@H]1CCCN(S(=O)(=O)c2ccccn2)CC1=O
8.9 | O=C(N[C@@H](Cc1ccccc1)C(=O)N[C@H]1CCCN(S(=O)(=O)c2ccccn2)CC1=O)c1cc2ccccc2o1

The next lines start with the compound.

Structure (SMILES) | Ki [nM]
CC(C)C[C@H](NC(=O)c1cccc2cccnc12)C(=O)N[C@H]1CCCN(S(=O)(=O)c2ccccn2)CC1=O | 41
CC(C)C[C@H](NC(=O)c1ccc2ccccc2n1)C(=O)N[C@H]1CCCN(S(=O)(=O)c2ccccn2)CC1=O | 27
O=C[C@H](Cc1ccc(O)cc1)NC(=O)[C@H](Cc1ccccc1)NC(=O)OCc1ccccc1 (Cbz-Phe-Tyr-aldehyde) | 0.26
